Results reported in publication PMC10059965, “Tsaokoic Acid: A New Bicyclic Nonene from the Fruits of Amomum tsao-ko with Acetylcholinesterase Inhibitory Activity” (Molecules, 2023).
pIC50: −log10 of the molar value. Where two headings read alike, the source gives them in different places.

Tests used:
[1] = target: T1, AChE (Homo sapiens, UniProt P22303); experiment: biochemical; conditions: for inhibition at 2 µM: concentration 2 μM; for inhibition at 10 µM: concentration 10 μM; for inhibition at 50 µM: concentration 50 μM
[2] = previous studies; cited from earlier work
[3] = target: T1, AChE; conditions: previous in vitro and in vivo reports; cited from earlier work
[4] = Ellman method, pH 8.0, triplicate, read-out: IC50 (AChE-inhibitory activity)
[5] = read-out: Inhibition (%) of AChE

T1 sequence (P22303 32-614): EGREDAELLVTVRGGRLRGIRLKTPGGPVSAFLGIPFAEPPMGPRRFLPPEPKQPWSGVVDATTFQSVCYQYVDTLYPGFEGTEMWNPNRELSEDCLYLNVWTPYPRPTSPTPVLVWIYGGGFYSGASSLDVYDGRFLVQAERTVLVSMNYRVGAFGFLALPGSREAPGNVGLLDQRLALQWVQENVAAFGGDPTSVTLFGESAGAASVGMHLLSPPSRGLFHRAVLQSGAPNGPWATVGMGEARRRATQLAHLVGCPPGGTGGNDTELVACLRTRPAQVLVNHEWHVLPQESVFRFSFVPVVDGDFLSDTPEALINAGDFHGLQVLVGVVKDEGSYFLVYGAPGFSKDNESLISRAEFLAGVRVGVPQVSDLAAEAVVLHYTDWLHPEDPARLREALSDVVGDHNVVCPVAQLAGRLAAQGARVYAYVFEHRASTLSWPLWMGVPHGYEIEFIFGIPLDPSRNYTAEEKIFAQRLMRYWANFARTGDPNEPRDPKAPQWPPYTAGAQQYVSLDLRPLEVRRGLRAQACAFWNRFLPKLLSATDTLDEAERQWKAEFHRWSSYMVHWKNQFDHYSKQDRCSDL

SMILES | pIC50 [1, 4] | inhibition at 2 µM [1] | inhibition at 10 µM [1] | inhibition at 50 µM [1] | Antifungal activity [2] | AChE-inhibitory activities [3] | pIC50 [1] | inhibition at 0.04 µM [1, 5] | inhibition at 0.2 µM [1, 5] | inhibition at 1 µM [1, 5]
O=C(O)C1=CC[C@@H](O)[C@H]2CCC[C@@H]12 (relative stereo) [Compound 1, rel-(1R,5R,6S)-5-hydroxybicyclo[4.3.0]non-2-ene-2-carboxylic acid] | 4.48 | 2.09% | 29.5% | 70.9% | – | – | – | – | – | –
O=CC1=CC[C@@H](O)[C@H]2CCC[C@@H]12 (relative stereo) [Compound 2, rel-(1R,5R,6S)-5-hydroxybicyclo[4,3,0]non-2-ene-2-carboxaldehyde] | 4.38 | -6.07% | 7.74% | 62.1% | weak antifungal activity | – | – | – | – | –
COc1cc(C=O)ccc1O [Compound 3, vanillin] | – | -1.88% | 6.07% | – | – | has AChE-inhibitory activities | 4.41 | – | – | –
COc1cc(/C=C/C=C/C(=O)CCc2ccc(O)cc2)ccc1O [Compound 4, tsaokoarylone] | 4.51 | -11.9% | 30.8% | 78.7% | – | – | – | – | – | –
COc1ccc2cc3[n+](cc2c1OC)CCc1cc2c(cc1-3)OCO2 [berberine, reference compound] | – | – | – | – | – | – | – | 20.7% | 73.4% | 95.8%
